# Test results as given in US9933367B2, “Method to identify and isolate pluripotent stem cells using endogenous blue fluorescence” (NATIONAL CENTRE FOR BIOLOGICAL SCIENCES, priority 2012, dated 2018).
# Entries after “also recorded” stand apart in the source; their conditions may differ.
# What was measured:
# [1] = system: mouse embryonic stem cells; experiment: Mouse ES cells grown in media with additional retinol; blue fluorescence and lipid bodies; assay type: cell-based; conditions: 20% KOSR media with retinol, 48 hours
# From the text: The increase in fluorescence intensities is also found to be confined to the lipid bodies.
# [2] = system: HuES cells; experiment: HuES cells in retinol-free E8 media supplemented with retinol; fluorescent lipid bodies; assay type: cell-based, human; conditions: HuES cells cultured in E8 media (lacks retinol), retinol 10 μM added
# Experimental: HuES cells cultured in E8 media show a rapid decrease in lipid bodies along with associated fluorescence in 24 hours, and the lipid bodies are completely absent by 72 hours (FIG. 10). […] A possible reason could be the differential expression of proteins involved in retinoid uptake and metabolism between the two states/cell types.
# [3] = system: HPSCs; experiment: Supplementing HPSC culture media with retinyl palmitate or retinol; blue fluorescence of lipid bodies; assay type: cell-based, human
# From the text: All non-confocal epifluorescence images are obtained with a Nikon Eclipse TE2000-E-PFS (Japan) microscope with a Photometrix Cascade II 512 EM-CCD camera (Roper Scientific, USA) and Image Pro-Plus AMS software (Media Cybernetics, USA). The Nikon objectives used are 60×/NA1.4 oil immersions and 10×/NA 0.3 for all experiments. Fluorescence is visualized using band pass filters (Chroma Technology, USA). The filters used are Blue (Exciter—350 nm/50, Dichoric—400 nm long pass, Emitter—460 nm/50), Green (Exciter—500 nm/20, Dichoric—535 nm/30, Emitter—515 long pass) and Red (Exciter—450 nm/30, Dichoric—620 nm/0, Emitter—570 long pass). Confocal images are acquired using a Zeiss LSM 510 Meta Confocal set up with a 63× objective and a 405 laser (excitation—405 nm, emission—about 420 nm to about 490 nm). […] For quantitative analysis and depiction of images for direct comparison, for e.g. between mouse ES cells and human ES cells, all the images presented have the same intensity scale bounded by the adjusted maximum value of the HuES cell image. Scatter plot and linear fit analyses of pluripotency marker expression (OCT4, SOX2 and Nanog) and blue fluorescence is performed with fluorescence intensity values of individual pixels using the ‘plot profile’ application from ImageJ. […] The increase in fluorescence intensities is also found to be confined to the lipid bodies.
SMILES,retinoid-associated (blue) fluorescence [1],fluorescent lipid bodies after addition to E8 cultures [2],blue fluorescence in the HPSCs emanating from the lipid bodies ([3]; culture media supplemented with retinol),"mean blue fluorescence intensity in the lipid bodies ([3]; HPSCs on MEF feeder cells, typical media with 20% KOSR, supplemented at 2-10 μM, after 24 hours)"
CC1=C(/C=C/C(C)=C/C=C/C(C)=C/CO)C(C)(C)CCC1 [retinol],practically no increase; also recorded: do not show any increase in blue fluorescence,re-appearance of fluorescent lipid bodies; also recorded: regain blue fluorescent lipid bodies in 48 hours,dose-dependent increase,–
CCCCCCCCCCCCCCCC(=O)OC/C=C(C)/C=C/C=C(C)/C=C/C1=C(C)CCCC1(C)C [retinyl palmitate],–,–,–,dose-dependent saturable increase; also recorded: dose dependent increase in blue fluorescence
